Values joined by “and” are separate entries in the source; they are usually repeats but may differ in a detail not shown here. Equal entries are not always repeated. Inconclusive results and toxic doses are left out. How the source made its calls: active means survival T/C of 150% or more; inactive means T/C below 125% in these data.
System: BDF1 mice, P388 leukemia ip, median survival T/C
Assay: NCI In Vivo Anticancer Drug Screen. Data for tumor model P388 Leukemia (intraperitoneal) in B6D2F1 (BDF1) mice
Details: endpoint: median survival time, higher = longer survival
Summary of the method: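 Reported as T/C, where T is the survival measurement in dosed animals and C the same measurement in vehicle controls.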

[1] = dose: 50.0 mg/kg/injection, schedule: Q01DX009 (ip), vehicle: saline with Tween-80
[2] = dose: 100.0 mg/kg/injection, schedule: Q01DX009 (ip), vehicle: saline with Tween-80
[3] = dose: 200.0 mg/kg/injection, schedule: Q01DX009 (ip), vehicle: saline with Tween-80
[4] = dose: 100.0 mg/kg/injection, schedule: Q01DX009 (ip), vehicle: saline
[5] = dose: 200.0 mg/kg/injection, schedule: Q01DX009 (ip), vehicle: saline
[6] = dose: 25.0 mg/kg/injection, schedule: Q01DX009 (ip), vehicle: saline with Tween-80

Measured: T/C

Cc1cc(C(C(N)=O)c2ccccc2)ccc1N(CCCl)CCCl (stereo not drawn)
inactive: dose: 0.22 mg/kg/injection, schedule: Q01DX009 (ip), vehicle: Klucel (hydroxypropylcellulose) (HPC) 112 % of control | dose: 0.33 mg/kg/injection, schedule: Q01DX009 (ip), vehicle: Klucel (hydroxypropylcellulose) (HPC) 108 % of control | dose: 6.0 mg/kg/injection, schedule: Q04DX003 (ip), vehicle: saline 118 % of control | dose: 18.75 mg/kg/injection, schedule: Q01DX009 (ip), vehicle: Klucel (hydroxypropylcellulose) (HPC) 103 % of control | dose: 28.12 mg/kg/injection, schedule: Q01DX009 (ip), vehicle: Klucel (hydroxypropylcellulose) (HPC) 110 % of control
96 % of control and 205 % of control: dose: 12.37 mg/kg/injection, schedule: Q01DX009 (ip), vehicle: Klucel (hydroxypropylcellulose) (HPC)
active: dose: 0.77 mg/kg/injection, schedule: Q01DX009 (ip), vehicle: Klucel (hydroxypropylcellulose) (HPC) 155 % of control | dose: 2.34 mg/kg/injection, schedule: Q01DX009 (ip), vehicle: Klucel (hydroxypropylcellulose) (HPC) 154 % of control | dose: 4.68 mg/kg/injection, schedule: Q01DX009 (ip), vehicle: Klucel (hydroxypropylcellulose) (HPC) 186 % of control | dose: 13.75 mg/kg/injection, schedule: Q04DX003 (ip), vehicle: Klucel (hydroxypropylcellulose) (HPC) 178 % of control | dose: 27.5 mg/kg/injection, schedule: Q04DX003 (ip), vehicle: Klucel (hydroxypropylcellulose) (HPC) 213 % of control | dose: 35.0 mg/kg/injection, schedule: Q04DX003 (ip), vehicle: Klucel (hydroxypropylcellulose) (HPC) 218 % of control | dose: 55.0 mg/kg/injection, schedule: Q04DX003 (ip), vehicle: Klucel (hydroxypropylcellulose) (HPC) 272 % of control and 221 % of control | dose: 80.0 mg/kg/injection, schedule: Q04DX003 (ip), vehicle: Klucel (hydroxypropylcellulose) (HPC) 272 % of control

CCOC(=O)C(=O)CC1=CC=CC2=NC(=O)CCN12
inactive: dose: 66.0 mg/kg/injection, schedule: Q01DX001 (ip), vehicle: saline with Tween-80 109 % of control | dose: 100.0 mg/kg/injection, schedule: Q01DX001 (ip), vehicle: saline with Tween-80 100 % of control | dose: 150.0 mg/kg/injection, schedule: Q01DX001 (ip), vehicle: saline with Tween-80 100 % of control | dose: 200.0 mg/kg/injection, schedule: Q01DX001 (ip), vehicle: saline with Tween-80 100 % of control

O=S(=O)([O-])NC1CCCCC1.O=S(=O)([O-])NC1CCCCC1.[Hg+2].[Hg+2].[Hg+2].[O-2].[O-2]
inactive: dose: 0.5 mg/kg/injection, schedule: Q01DX009 (ip), vehicle: Klucel (hydroxypropylcellulose) (HPC) 99 % of control | dose: 1.0 mg/kg/injection, schedule: Q01DX009 (ip), vehicle: Klucel (hydroxypropylcellulose) (HPC) 111 % of control | dose: 2.0 mg/kg/injection, schedule: Q01DX009 (ip), vehicle: Klucel (hydroxypropylcellulose) (HPC) 111 % of control | dose: 4.0 mg/kg/injection, schedule: Q01DX009 (ip), vehicle: Klucel (hydroxypropylcellulose) (HPC) 121 % of control | dose: 8.0 mg/kg/injection, schedule: Q01DX009 (ip), vehicle: Klucel (hydroxypropylcellulose) (HPC) 101 % of control

C[N+]1(C)N=C([O-])N(c2ccccc2[N+](=O)[O-])C1=O
inactive: [1] 88 % of control

Cc1cc(C)c(C)[nH]1
inactive: dose: 3.12 mg/kg/injection, schedule: Q01DX009 (ip), vehicle: water 87 % of control | dose: 6.25 mg/kg/injection, schedule: Q01DX009 (ip), vehicle: water 111 % of control | dose: 12.5 mg/kg/injection, schedule: Q01DX009 (ip), vehicle: water 105 % of control | dose: 12.5 mg/kg/injection, schedule: Q04DX003 (ip), vehicle: water 91 % of control | dose: 25.0 mg/kg/injection, schedule: Q01DX009 (ip), vehicle: water 103 % of control | dose: 25.0 mg/kg/injection, schedule: Q04DX003 (ip), vehicle: water 114 % of control | dose: 50.0 mg/kg/injection, schedule: Q01DX009 (ip), vehicle: water 97 % of control | dose: 50.0 mg/kg/injection, schedule: Q04DX003 (ip), vehicle: water 107 % of control

O=C(c1ccc[nH]1)C(Cl)(Cl)Cl
inactive: [1] 108 % of control | [2] 117 % of control | [3] 115 % of control

NC(C/[N+]([O-])=N/O)C(=O)O (stereo not drawn)
inactive: dose: 15.6 mg/kg/injection, schedule: Q04DX003 (ip), vehicle: saline 118 % of control | dose: 15.6 mg/kg/injection, schedule: Q04DX003 (ip), vehicle: water 118 % of control | dose: 25.0 mg/kg/injection, schedule: Q01DX010 (ip), vehicle: saline 122 % of control | dose: 31.3 mg/kg/injection, schedule: Q04DX003 (ip), vehicle: saline 122 % of control | dose: 200.0 mg/kg/injection, schedule: Q01DX010 (ip), vehicle: saline 100 % of control | dose: 800.0 mg/kg/injection, schedule: Q04DX003 (ip), vehicle: sodium bicarbonate 116 % of control
active: dose: 25.0 mg/kg/injection, schedule: Q01DX010 (ip), vehicle: other 150 % of control | dose: 50.0 mg/kg/injection, schedule: Q01DX010 (ip), vehicle: other 150 % of control | dose: 100.0 mg/kg/injection, schedule: Q01DX010 (ip), vehicle: other 165 % of control | dose: 125.0 mg/kg/injection, schedule: Q04DX003 (ip), vehicle: water 168 % of control | dose: 173.0 mg/kg/injection, schedule: Q04DX003 (ip), vehicle: sodium bicarbonate 161 % of control and 171 % of control | dose: 250.0 mg/kg/injection, schedule: Q04DX003 (ip), vehicle: saline 172 % of control | dose: 250.0 mg/kg/injection, schedule: Q04DX003 (ip), vehicle: water 181 % of control | dose: 288.0 mg/kg/injection, schedule: Q04DX003 (ip), vehicle: sodium bicarbonate 161 % of control and 172 % of control | dose: 480.0 mg/kg/injection, schedule: Q04DX003 (ip), vehicle: sodium bicarbonate 190 % of control and 192 % of control | dose: 500.0 mg/kg/injection, schedule: Q04DX003 (ip), vehicle: saline 181 % of control | dose: 500.0 mg/kg/injection, schedule: Q04DX003 (ip), vehicle: water 177 % of control

CC(=O)Nc1ccc2c(c1)Cc1cc(NC=O)ccc1-2
inactive: dose: 0.75 mg/kg/injection, schedule: Q01DX009 (ip), vehicle: Klucel (hydroxypropylcellulose) (HPC) 89 % of control | dose: 3.0 mg/kg/injection, schedule: Q01DX009 (ip), vehicle: Klucel (hydroxypropylcellulose) (HPC) 92 % of control | dose: 12.5 mg/kg/injection, schedule: Q01DX009 (ip), vehicle: Klucel (hydroxypropylcellulose) (HPC) 96 % of control | dose: 100.0 mg/kg/injection, schedule: Q01DX009 (ip), vehicle: Klucel (hydroxypropylcellulose) (HPC) 91 % of control | dose: 100.0 mg/kg/injection, schedule: Q04DX003 (ip), vehicle: Klucel (hydroxypropylcellulose) (HPC) 87 % of control

O=C1CC=C(Nc2ccc(Br)cc2)C(=O)O1
inactive: dose: 25.0 mg/kg/injection, schedule: Q01DX009 (ip), vehicle: saline 99 % of control | dose: 50.0 mg/kg/injection, schedule: Q01DX009 (ip), vehicle: saline 101 % of control | [4] 105 % of control | dose: 100.0 mg/kg/injection, schedule: Q04DX003 (ip), vehicle: saline 112 % of control | [5] 92 % of control | dose: 200.0 mg/kg/injection, schedule: Q04DX003 (ip), vehicle: saline 91 % of control | dose: 400.0 mg/kg/injection, schedule: Q01DX009 (ip), vehicle: saline 99 % of control | dose: 400.0 mg/kg/injection, schedule: Q04DX003 (ip), vehicle: saline 107 % of control

CC(=O)OCC(=O)[C@@]1(O)CC[C@H]2[C@@H]3CCC4=CC(=O)C=C[C@]4(C)[C@@]3(F)[C@@H](O)C[C@@]21C
inactive: dose: 12.5 mg/kg/injection, schedule: Q01DX009 (ip), vehicle: saline sonified 104 % of control | dose: 25.0 mg/kg/injection, schedule: Q01DX009 (ip), vehicle: saline sonified 109 % of control | dose: 50.0 mg/kg/injection, schedule: Q01DX009 (ip), vehicle: saline sonified 100 % of control

NC(=S)c1ncc(N)s1
inactive: [6] 89 % of control | [1] 98 % of control | [2] 106 % of control

[NH2-].[NH2-].[NH2-].[NH2-].[Pt+4]
inactive: dose: 12.5 mg/kg/injection, schedule: Q01DX009 (ip), vehicle: saline with Tween-80 90 % of control | [6] 100 % of control | [1] 90 % of control

C=CCCC/C(C)=N/NS(=O)(=O)c1ccc(C)cc1
inactive: [1] 109 % of control | [2] 109 % of control | [3] 95 % of control

COc1cc(/C=N/NC(=O)COCC(=O)N/N=C/c2ccc(O)cc2OC)ccc1O
inactive: dose: 200.0 mg/kg/injection, schedule: Q01DX005 (ip), vehicle: saline with Tween-80 96 % of control

COc1cc(Br)c(CCC#N)cc1OC
inactive: [1] 91 % of control | [2] 110 % of control | [3] 92 % of control

CC(=O)Nc1ccc2c3c(ccc([N+](=O)[O-])c13)CC2
inactive: [4] 90 % of control | [5] 95 % of control

Source: PubChem BioAssay AID328 (DTP/NCI, 2004)
